ChEMBL document CHEMBL1136169, “Design and synthesis of potent and selective macrocyclic thrombin inhibitors” (Bioorg Med Chem Lett, 2003)

How the values were obtained:
Prothrombin = Prothrombin (Homo sapiens, UniProt P00734); test: Inhibitory activity against thrombin IIa
Homo sapiens = species: Homo sapiens; test: Concentration of inhibitor in human plasma required to double the activated partial thromboplastin time; type: functional
Serine protease 1 = Serine protease 1 (Homo sapiens, UniProt P07477); test: Inhibitory activity against human trypsin
Sequence of Serine protease 1 (P07477 whole entry): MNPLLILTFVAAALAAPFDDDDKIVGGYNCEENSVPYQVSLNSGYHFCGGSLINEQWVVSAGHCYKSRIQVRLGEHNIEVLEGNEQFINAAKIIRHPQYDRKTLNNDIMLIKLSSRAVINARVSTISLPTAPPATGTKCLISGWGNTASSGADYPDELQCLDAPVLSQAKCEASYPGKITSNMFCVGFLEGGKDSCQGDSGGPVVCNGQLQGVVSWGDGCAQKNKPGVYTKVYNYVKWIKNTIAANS

[1] = molecular target: Tissue-type plasminogen activator (Homo sapiens, UniProt P00750); test: Inhibitory activity against Tissue plasminogen activator
Sequence of Tissue-type plasminogen activator (P00750 whole entry): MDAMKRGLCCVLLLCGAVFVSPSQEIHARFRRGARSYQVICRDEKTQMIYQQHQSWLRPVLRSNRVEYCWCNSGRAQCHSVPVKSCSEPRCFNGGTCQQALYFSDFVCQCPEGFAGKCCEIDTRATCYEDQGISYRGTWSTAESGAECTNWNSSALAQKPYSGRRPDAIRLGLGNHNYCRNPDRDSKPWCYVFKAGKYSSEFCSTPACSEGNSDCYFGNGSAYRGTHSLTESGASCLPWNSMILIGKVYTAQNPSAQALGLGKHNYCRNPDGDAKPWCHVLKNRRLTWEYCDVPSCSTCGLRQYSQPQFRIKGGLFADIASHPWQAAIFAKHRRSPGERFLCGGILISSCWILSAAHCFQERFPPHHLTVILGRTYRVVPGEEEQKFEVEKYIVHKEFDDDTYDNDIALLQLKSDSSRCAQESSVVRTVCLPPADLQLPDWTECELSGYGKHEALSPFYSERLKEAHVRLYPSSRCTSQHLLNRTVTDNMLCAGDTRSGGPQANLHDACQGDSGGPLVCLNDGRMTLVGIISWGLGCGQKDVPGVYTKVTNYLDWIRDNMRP

| SMILES | Ki (Prothrombin) | 2*APTT (Homo sapiens) | Ki (Serine protease 1) | Ki [1] |
| --- | --- | --- | --- | --- |
| O=C1COc2ccc(Cl)cc2CNC(=O)[C@@H]2CCCN2C(=O)[C@@H](C2CCCCC2)NC(=O)CN1 | 2.9 nM | 0.69 µM | 9300 nM | 5600 nM |
| O=C1Cn2c(Cl)cnc(c2=O)N[C@@H](Cc2ccccc2)CNCCCCOc2ccc(Cl)cc2CN1 | 0.2 nM | 0.74 µM | 90 nM | 20 nM |
| O=C1Cn2c(Cl)cnc(c2=O)N[C@@H](Cc2ccccc2)CNCCOc2ccc(Cl)cc2CN1 | 560 nM |  |  |  |
| O=C1Cn2c(Cl)cnc(c2=O)N[C@@H](Cc2ccccc2)NCCCCCCOc2ccc(Cl)cc2CN1 | 0.13 nM | 3.17 µM | 240 nM |  |
| O=C1Cn2c(Cl)cnc(c2=O)N[C@@H](Cc2ccccc2)CNCCCNCCc2ccccc2CN1 |  | 0.47 µM | 2100 nM | 640 nM |
| O=C1Cn2c(Cl)cnc(c2=O)N[C@@H](Cc2ccccc2)CNCCCCCOc2ccccc2CN1 | 2.5 nM | 0.6 µM | 6700 nM | 360 nM |
| O=C1Cn2c(Cl)cnc(c2=O)N[C@@H](Cc2ccccc2)CNCCCCNCc2ccccc2CN1 | 0.51 nM | 0.43 µM | 41000 nM | 165000 nM |
| O=C1Cn2c(Cl)cnc(c2=O)N[C@@H](Cc2ccccc2)CNCCCOc2ccc(Cl)cc2CN1 | 26 nM |  |  |  |
| CCN(CC)C(=O)CN[C@H](C(=O)N1CCC[C@H]1C(=O)NCc1cc(Cl)ccc1Cl)C1CCCCC1 | 0.31 nM |  |  |  |
| O=C1Cn2c(Cl)cnc(c2=O)N[C@@H](Cc2ccccc2)CNCCCCCOc2ccc(Cl)cc2CN1 | 0.05 nM | 1.22 µM | 80 nM | 6 nM |
| CN1CCCCCOc2ccc(Cl)cc2CNC(=O)Cn2c(Cl)cnc(c2=O)N[C@@H](Cc2ccccc2)C1 | 0.02 nM | 1.89 µM | 40 nM | 3 nM |
| O=C1COc2ccc(Cl)cc2CNC(=O)[C@@H]2CCCN2C(=O)[C@@H](C2CCCCC2)NC(=O)CCCN1 | 0.4 nM | 0.31 µM | 5000 nM | 4300 nM |
| O=C1Cn2c(Cl)cnc(c2=O)N[C@@H](Cc2ccccc2)CNC(=O)OCCCCOc2ccc(Cl)cc2CN1 | 0.63 nM | 1.97 µM | 4000 nM |  |
| O=C1COc2ccc(Cl)cc2CNC(=O)[C@@H]2CCCN2C(=O)C(C2CCCCC2)NC(=O)CCN1 (some centres undefined) |  | 0.36 µM | 21500 nM | 8900 nM |
| N[C@H](C(=O)N1CCC[C@H]1C(=O)NCc1cc(Cl)ccc1Cl)C1CCCCC1 | 5 nM |  |  |  |
| O=C1Cn2c(Cl)cnc(c2=O)N[C@@H](Cc2ccccc2)CNC(=O)OC/C=C/COc2ccc(Cl)cc2CN1 | 0.17 nM | 0.87 µM | 580 nM | 480 nM |
| O=C1Cn2c(Cl)cnc(c2=O)N[C@@H](Cc2ccccc2)CNC(=O)OC/C=C\COc2ccc(Cl)cc2CN1 | 0.06 nM | 0.78 µM | 110 nM | 6 nM |
| O=C1Cn2c(Cl)cnc(c2=O)N[C@@H](Cc2ccccc2)CNCCOCCOc2ccc(Cl)cc2CN1 | 0.05 nM | 0.56 µM | 110 nM | 150 nM |
| O=C1COc2ccc(Cl)cc2CNC(=O)[C@@H]2CCCN2C(=O)[C@@H](C2CCCCC2)NC(=O)CCCCN1 | 1.3 nM | 0.36 µM | 7700 nM | 48000 nM |
| O=C1Cn2c(Cl)cnc(c2=O)N[C@@H](Cc2ccccc2)CNCCOCCOc2ccccc2CN1 | 2.1 nM | 0.39 µM | 4600 nM | 3200 nM |
| CN1CCOc2ccccc2CNC(=O)Cn2c(Cl)cnc(c2=O)N[C@@H](Cc2ccccc2)CNC(=O)C1 | 3 nM | 0.5 µM | 17000 nM | 3900 nM |
| CCNC(=O)Oc1ccc(Cl)cc1CNC(=O)[C@@H]1CCCN1C(=O)[C@@H](N)C1CCCCC1 | 0.74 nM |  |  |  |
